Test results reported in patent US8143263B2, “Therapeutic agents” (Astrazeneca AB, priority 2008, dated 2012).
pEC50: −log10 of the molar value.

biological target: T1, recombinant human pancreatic GLK (Homo sapiens, UniProt P35557); assay: biochemical
T1 sequence (P35557 1-465): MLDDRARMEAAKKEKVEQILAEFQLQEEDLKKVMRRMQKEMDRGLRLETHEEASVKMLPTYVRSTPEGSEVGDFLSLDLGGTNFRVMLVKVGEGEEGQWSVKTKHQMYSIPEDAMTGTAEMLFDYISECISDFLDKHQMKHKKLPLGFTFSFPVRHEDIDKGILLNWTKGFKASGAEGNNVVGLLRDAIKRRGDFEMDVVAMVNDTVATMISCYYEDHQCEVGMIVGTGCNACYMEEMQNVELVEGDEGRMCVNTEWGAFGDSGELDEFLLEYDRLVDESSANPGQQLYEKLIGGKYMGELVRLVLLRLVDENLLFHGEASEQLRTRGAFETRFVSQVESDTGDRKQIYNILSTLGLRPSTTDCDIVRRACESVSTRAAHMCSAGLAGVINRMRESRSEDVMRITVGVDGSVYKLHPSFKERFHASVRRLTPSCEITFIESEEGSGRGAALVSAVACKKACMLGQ

| SMILES | pEC50 |
| --- | --- |
| C[C@H](CO)OC[C@H](Oc1ncnc2c1cnn2-c1c(Cl)cccc1C#N)C(=O)Nc1ccccn1 [Example 231, (2S)-2-[1-(2-chloro-6-cyano-phenyl)pyrazolo[3,4-d]pyrimidin-4-yl]oxy-3-[(1R)-2-hydroxy-1-methyl-ethoxy]-N-(2-pyridyl)propanamide] | 6.59 |
| Cc1c(Cl)cccc1-n1ncc2c(O[C@@H](COCCO)C(=O)Nc3ccc(C#N)cn3)ncnc21 [Example 166, (2S)-2-[1-(3-chloro-2-methylphenyl)pyrazolo[4,5-e]pyrimidin-4-yl]oxy-N-(5-cyanopyridin-2-yl)-3-(2-hydroxyethoxy)propanamide] | 5.54 |
| CCOC[C@H](Oc1ncnc2c1cnn2-c1ncccc1C(F)(F)F)C(=O)Nc1ccc(Cl)cn1 [Example 134, (2S)—N-(5-chloropyridin-2-yl)-3-ethoxy-2-[1-[3-(trifluoromethyl)pyridin-2-yl]pyrazolo[4,5-e]pyrimidin-4-yl]oxypropanamide] | 6.36 |
| CC(C)OC[C@H](Oc1ncnc2c1cnn2-c1ncccc1Cl)C(=O)Nc1nc(C#N)cs1 [Example 127h, (2S)-2-[1-(3-chloro-2-pyridyl)pyrazolo[4,5-e]pyrimidin-4-yl]oxy-N-(4-cyanothiazol-2-yl)-3-isopropoxy-propanamide] | 5.19 |
| N#Cc1ccc(NC(=O)[C@H](CCCO)Oc2ncnc3c2cnn3-c2ncccc2Cl)nc1 [Example 213, (2S)-2-(1-(3-chloropyridin-2-yl)-1H-pyrazolo[3,4-d]pyrimidin-4-yloxy)-N-(5-cyanopyridin-2-yl)-5-hydroxypentanamide] | 5.96 |
| CCOC[C@H](Oc1ncnc2c1cnn2-c1ncccc1Cl)C(=O)Nc1ccc(F)cn1 [Example 127d, (2S)-2-[1-(3-chloro-2-pyridyl)pyrazolo[4,5-e]pyrimidin-4-yl]oxy-3-ethoxy-N-(5-fluoro-2-pyridyl)propanamide] | 6.17 |
| Cc1ccc(NC(=O)C(CCS(C)(=O)=O)Oc2ncnc3c2cnn3-c2ccccc2Cl)nc1 (stereo not shown) [Example 9, 2-{[1-(2-chlorophenyl)-1H-pyrazolo[3,4-d]pyrimidin-4-yl]oxy}-N-(5-methylpyridin-2-yl)-4-(methylsulfonyl)butanamide] | 6.28 |
| CCOC[C@H](Oc1ncnc2c1cnn2-c1ccccc1S(C)(=O)=O)C(=O)Nc1ccc(Cl)cn1 [Example 130, (2S)—N-(5-chloropyridin-2-yl)-3-ethoxy-2-(1-(2-(methylsulfonyl)phenyl)-1H-pyrazolo[3,4-d]pyrimidin-4-yloxy)propanamide] | 5.96 |
| COCC(Oc1ncnc2c1cnn2-c1ccc(Cl)cc1Cl)C(=O)Nc1ccc(C)cn1 (stereo not shown) [Example 7, 2-{[1-(2,4-Dichlorophenyl)-1H-pyrazolo[3,4-d]pyrimidin-4-yl]oxy}-3-methoxy-N-(5-methylpyridin-2-yl)propanamide] | 5.43 |
| COCC(Sc1ncnc2c1cnn2-c1ccccc1Cl)C(=O)Nc1ccc(C)cn1 (stereo not shown) [Example 62, 2-{[1-(2-Chlorophenyl)-1H-pyrazolo[3,4-d]pyrimidin-4-yl]thio}-3-methoxy-N-(5-methylpyridin-2-yl)propanamide] | 4.92 |
| COCCC(Oc1ncnc2c1cnn2-c1ccccn1)C(=O)Nc1ccc(C)cn1 (stereo not shown) [Example 34, 4-Methoxy-N-(5-methylpyridin-2-yl)-2-[(1-pyridin-2-yl-1H-pyrazolo[3,4-d]pyrimidin-4-yl)oxy]butanamide] | 5.72 |
| O=C(Nc1ccc(F)cn1)[C@H](CN1CC(O)C1)Oc1ncnc2c1cnn2-c1ccccc1Cl [Example 215, (2S)-2-[1-(2-chlorophenyl)pyrazolo[4,5-e]pyrimidin-4-yl]oxy-N-(5-fluoro-2-pyridyl)-3-(3-hydroxyazetidin-1-yl)propanamide] | 6.64 |
| Cc1ccc(NC(=O)[C@H](COC(C)C)Oc2ncnc3c2cnn3-c2cccnc2C)nc1 [Example 146, (2S)-3-isopropoxy-N-(5-methyl-2-pyridyl)-2-[1-(2-methyl-3-pyridyl)pyrazolo[4,5-e]pyrimidin-4-yl]oxy-propanamide] | 6.02 |
| Cc1ccc(NC(=O)[C@H](CCO)Oc2ncnc3c2cnn3-c2ncccc2Cl)nc1 [Example 143, (2S)-2-[1-(3-chloro-2-pyridyl)pyrazolo[4,5-e]pyrimidin-4-yl]oxy-4-hydroxy-N-(5-methyl-2-pyridyl)butanamide] | 6.74 |
| Cc1cnc(NC(=O)[C@H](COC2CCC2)Oc2ncnc3c2cnn3-c2ccccc2S(C)(=O)=O)cn1 [Example 140, (2S)-3-cyclobutoxy-N-(5-methylpyrazin-2-yl)-2-(1-(2-(methylsulfonyl)phenyl)-1H-pyrazolo[3,4-d]pyrimidin-4-yloxy)propanamide] | 5.92 |
| N#Cc1ccc(NC(=O)[C@H](COCCO)Oc2ncnc3c2cnn3-c2ccccc2Cl)nc1 [Example 172, (2S)-2-[1-(2-chlorophenyl)pyrazolo[4,5-e]pyrimidin-4-yl]oxy-N-(5-cyanopyridin-2-yl)-3-(2-hydroxyethoxy)propanamide] | 6.09 |

| SMILES | pEC50 |
| --- | --- |
| CC(C)OC[C@H](Oc1ncnc2c1cnn2-c1ccccc1Cl)C(=O)Nc1ccc(C#N)cn1 [Example 113a, (2S)-2-[1-(2-chlorophenyl)pyrazolo[4,5-e]pyrimidin-4-yl]oxy-N-(5-cyano-2-pyridyl)-3-isopropoxy-propanamide] | 6.52 |
| COC[C@H](Oc1ncnc2c1cnn2-c1ccccc1Cl)C(=O)Nc1ccc(C)cn1 [Example 87, (2S)-2-(1-(2-chlorophenyl)-1H-pyrazolo[3,4-d]pyrimidin-4-yloxy)-3-methoxy-N-(5-methylpyridin-2-yl)propanamide] | 6.49 |
| Cc1nnc(NC(=O)C(COC(C)C)Oc2ncnc3c2cnn3-c2ccccc2Cl)o1 (stereo not shown) [2-[1-(2-chlorophenyl)pyrazolo[4,5-e]pyrimidin-4-yl]oxy-3-isopropoxy-N-(5-methyl-1,3,4-oxadiazol-2-yl)propanamide] | < 4.00 |
| CCOC[C@H](Oc1ncnc2c1cnn2-c1ccncc1C)C(=O)Nc1ccc(Cl)cn1 [Example 128, (2S)—N-(5-Chloropyridin-2-yl)-3-ethoxy-2-[1-(3-methylpyridin-4-yl)pyrazolo[4,5-e]pyrimidin-4-yl]oxypropanamide] | 6.04 |
| Cc1ccc(NC(=O)[C@H](COC(C)C)Oc2ncnc3c2cnn3-c2cnccc2C)nc1 [Example 148, (2S)-3-isopropoxy-N-(5-methyl-2-pyridyl)-2-[1-(4-methyl-3-pyridyl)pyrazolo[4,5-e]pyrimidin-4-yl]oxy-propanamide] | 6.03 |
| Cc1ccc(NC(=O)[C@H](CN2CC(O)C2)Oc2ncnc3c2cnn3-c2ncccc2Cl)nc1 [Example 206, (2S)-2-(1-(3-chloropyridin-2-yl)-1H-pyrazolo[3,4-d]pyrimidin-4-yloxy)-3-(3-hydroxyazetidin-1-yl)-N-(5-methylpyridin-2-yl)propanamide] | 6.24 |
| Cc1c(Cl)cccc1-n1ncc2c(O[C@@H](COCCO)C(=O)Nc3ccc(Cl)cn3)ncnc21 [Example 173, (2S)-2-[1-(3-chloro-2-methylphenyl)pyrazolo[4,5-e]pyrimidin-4-yl]oxy-N-(5-chloropyridin-2-yl)-3-(2-hydroxyethoxy)propanamide] | 6.04 |
| Cc1ccc(NC(=O)[C@H](CO[C@H](C)CO)Oc2ncnc3c2cnn3-c2cscc2C)nc1 [Example 227, (2S)-3-[(1R)-2-hydroxy-1-methyl-ethoxy]-N-(5-methyl-2-pyridyl)-2-[1-(4-methyl-3-thienyl)pyrazolo[3,4-d]pyrimidin-4-yl]oxy-propanamide] | 6.49 |
| COCC(Oc1ncnc2c1cnn2-c1ccccc1Cl)C(=O)Nc1ccc(C)cn1 (stereo not shown) [Example 1, 2-{[1-(2-chlorophenyl)-1H-pyrazolo[3,4-d]pyrimidin-4-yl]oxy}-3-methoxy-N-(5-methylpyridin-2-yl)propanamide] | 6.21 |
| Cc1ccc(C#N)cc1-n1ncc2c(O[C@@H](COCCO)C(=O)Nc3ccc(Cl)cn3)ncnc21 [Example 185, (2S)—N-(5-chloropyridin-2-yl)-2-(1-(5-cyano-2-methylphenyl)-1H-pyrazolo[3,4-d]pyrimidin-4-yloxy)-3-(2-hydroxyethoxy)propanamide] | 5.43 |
| CCCCCCC(Sc1ncnc2c1cnn2-c1ccccc1Cl)C(=O)Nc1nc(C)cs1 (stereo not shown) [Example 63, 2-{[1-(2-chlorophenyl)-1H-pyrazolo[3,4-d]pyrimidin-4-yl]thio}-N-(4-methyl-1,3-thiazol-2-yl)octanamide] | < 5.35 |
| COC[C@H](Oc1ncnc2c1cnn2-c1ccc(F)cc1Cl)C(=O)Nc1cnc(C)cn1 [Example 95, (2S)-2-(1-(2-chloro-4-fluorophenyl)-1H-pyrazolo[3,4-d]pyrimidin-4-yloxy)-3-methoxy-N-(5-methylpyrazin-2-yl)propanamide] | 4.41 |
| COCC(Oc1ncnc2c1cnn2C)C(=O)Nc1ccc(C)cn1 (stereo not shown) [Example 8, 3-methoxy-2-[(1-methyl-1H-pyrazolo[3,4-d]pyrimidin-4-yl)oxy]-N-(5-methylpyridin-2-yl)propanamide] | ≤ 4.00 |
| O=C(Nc1ccc(Cl)cn1)[C@H](COCCO)Oc1ncnc2c1cnn2-c1ncccc1Cl [Example 163, (2S)—N-(5-chloropyridin-2-yl)-2-(1-(3-chloropyridin-2-yl)-1H-pyrazolo[3,4-d]pyrimidin-4-yloxy)-3-(2-hydroxyethoxy)propanamide] | 6.24 |
| CC(C)OC[C@H](Oc1ncnc2c1cnn2-c1ncccc1Cl)C(=O)Nc1ccccn1 [Example 127k, (2S)-2-[1-(3-chloro-2-pyridyl)pyrazolo[4,5-e]pyrimidin-4-yl]oxy-3-isopropoxy-N-(2-pyridyl)propanamide] | 6.25 |
